Tested on: HEK293 cells
Experiment: Preliminary screening as DNA vectors, GFP transfection of HEK293 cells
Format: cell-based
Conditions: amino lipid/DOPE liposome with 75 ng plasmid DNA (psin-EGFP-IRES-Puro); number of GFP-expressing cells divided by total nuclei (Hoechst)
Procedure: Cell line: HEK293 cells (ATCC CRL-1573™)
Medium: DMEM supplemented with 10% fetal bovine serum (Invitrogen)
Mode of screening: cell transfection on 96-well plates
Detection (readout): percentage of the number of GFP fluorescent cells relative to the total number of cells (the total number of cells was measured using nucleus dye Hoechst—see FIG. 2). Lipofectamine2000 (Invitrogen) was used as positive control, according to the manufacturer's instructions.
Method: an 8-channel pipette was used for sample addition. The contents shown were for a single well of a 96-well flat plate.
1. The compound (0.01 mmol) prepared in Example 1 was dissolved in 1 mL of anhydrous ethanol. After ultrasonically dissolved, 10 μL of the resultant amino lipid solution in ethanol was taken and mixed with 5 μL of DOPE solution in ethanol (0.01 m), and then to the obtained mixture was added 35 μL of 0.2M sodium acetate buffer (pH 5.6), and 50 μL of liposome solution was prepared by vortex at a constant rotating speed for 30 s. 4 μL was taken from the 50 μL liposome solution and added to 46 μL of 0.02M sodium acetate buffer (pH 5.6), and the final liposome solution was formed by vortex at a constant rotating speed for 30 s. 5 μL was taken from the final liposome solution and mixed with 75 ng plasmid DNA (psin-EGFP-IRES-Puro, Clontech) dissolved in 5 μL of 0.02 M sodium acetate buffer, and was allowed to stay at room temperature for 30 min to form a lipid/DNA transfection complex.
2. 10 μL of the lipid/DNA transfection complex was incubated at room temperature for 30 min, followed by addition of 90 μL of fresh resuspended cells (3-5×10^4 cells) and mixing with a pipette. 100 μL of cells+lipid/DNA complex was transferred to separate wells of a 96-well culture plate immediately, and placed in an incubator containing 5% CO2 at 37° C.
3. Hoechst33258 (Invitrogen) was added at a final concentration of 0.2 μg/mL to the cells 20 to 24 hours after initial cell transfection, and cultured in darkness at 37° C. for 15 min. Afterwards, the cells were washed once with a PBS solution, and then added with medium for culture for 20 to 24 h.
4. The cells were placed in a high-throughput confocal microscope (Molecular Devices ImageXpress), and four visual fields of the image of the cells were captured for each well, and images at three laser wavelengths were captured for each sample: bright field images of cells (FIG. 2(a) and FIG. 2(b)), Hoechst-staining images showing total nuclei (FIG. 2(c) and FIG. 2(d)) and GFP images showing success in transfection with the plasmid DNA and the expression of GFP (FIG. 2(e) and FIG. 2(f)). MetaXpress software was used to separately count the cells in the Hoechst-staining images and GFP images, and then the number of cells expressing GFP was divided by the total number of nuclei to give the absolute cell transfection efficiency. The absolute transfection efficiency was calculated as follows: […]

Row | SMILES | Absolute DNA transfection efficiency in HEK293 cells
1 | CCCCCCCCCCCCN(CCCCCCCCCCCC)c1nc(NCCN2CCCCC2)nc(SCCCCCCCCC)n1 [S9^2N12 D4] | 0.0%
2 | CCCCCCCCCSc1nc(NCCN(CC)CC)nc(SCCCCCCC)n1 [S7S9 D7] | 14.5%
3 | CCCCCCCCCCCCCCCCNc1nc(NCCCN2CCN(C)CC2)nc(SCCCCCCCCCCCCCCCC)n1 [S16N16 D9] | 0.0%
4 | CCCCCCCCCCCCCCCNc1nc(NCCN2CCOCC2)nc(SCCCCCCC)n1 [S7N15 D2] | 14.1%
5 | CCCCCCCCCCCCCCCSc1nc(NCCCCCCC)nc(NCCN2CCN(C)CC2)n1 [S15N7 D5] | 12.9%
6 | CCCCCCCCCCCCCCCCNc1nc(NCCN(CC)CC)nc(SCCCCCCCC)n1 [S8N16 D7] | 5.2%
7 | CCCCCCCCCCCCCCCCNc1nc(NCCN2CCN(C)CC2)nc(SCCCCCC)n1 [S6N16 D5] | 19.6%
8 | CCCCCCCCCCCCCCCNc1nc(NCCCN2CCN(C)CC2)nc(SCCCCCC)n1 [S6N15 D9] | 28.4%
9 | CCCCCCCCCCCCNc1nc(NCCN2CCCCC2)nc(SCCCCCCCCC)n1 [S9N12 D4] | 8.0%
10 | CCCCCCCCCCCSc1nc(NCCCCCCCC)nc(NCCN(C)C)n1 [S11N8 D1] | 19.8%
11 | CCCCCCCCCCCCCCSc1nc(NCCN2CCCCC2)nc(SCCCCCCC)n1 [S7S14 D4] | 9.1%
12 | CCCCCCCCCCCNc1nc(NCCCN2CCOCC2)nc(SCCCCCCCCC)n1 [S9N11 D8] | 26.8%
13 | CCCCCCCCCCCCCNc1nc(NCCN(CC)CC)nc(SCCCCCCCCCCCC)n1 [S12N13 D7] | 12.9%
14 | CCCCCCCCCCCSc1nc(NCCN2CCN(C)CC2)nc(SCCCCCC)n1 [S6S11 D5] | 32.7%
15 | CCCCCCCCCCSc1nc(NCCN(C)C)nc(SCCCCCCC)n1 [S7S10 D1] | 21.8%
16 | CCCCCCCCCCCCCCCSc1nc(NCCCCCC)nc(NCCN2CCN(C)CC2)n1 [S15N6 D5] | 14.9%
17 | CCCCCCNc1nc(NCCN2CCN(C)CC2)nc(SCCCCCC)n1 [S6N6 D5] | 0.0%
18 | CCCCCCCCSc1nc(NCCCN(C)C)nc(SCCCCCC)n1 [S6S8 D6] | 7.4%
19 | CCCCCCCCCCCCCCCSc1nc(NCCCCCCCCC)nc(NCCN2CCCC2)n1 [S15N9 D3] | 30.1%
20 | CCCCCCCCCCCCCCCCCCNc1nc(NCCN2CCCC2)nc(SCCCCCC)n1 [S6N18 D3] | 21.9%

Row | SMILES | Absolute DNA transfection efficiency in HEK293 cells
21 | CCCCCCCCCCCCCCCCNc1nc(NCCN2CCOCC2)nc(SCCCCCCCC)n1 [S8N16 D2] | 2.9%
22 | CCCCCCCCCCCCNc1nc(NCCN(C)C)nc(SCCCCCCCCCCCC)n1 [S12N12 D1] | 7.9%
23 | CCCCCCCCCCCSc1nc(NCCCCCCCC)nc(NCCN2CCCC2)n1 [S11N8 D3] | 26.0%
24 | CCCCCCCCCCCCCCCCSc1nc(NCCN(CC)CC)nc(SCCCCCC)n1 [S6S16 D7] | 3.7%
25 | CCCCCCCSc1nc(NCC2CCN(C)CC2)nc(SCCCCCCC)n1 [S7S7 D10] | 5.5%
26 | CCCCCCCCCNc1nc(NCCCN2CCOCC2)nc(SCCCCCCC)n1 [S7N9 D8] | 4.6%
27 | CCCCCCCCCCSc1nc(NCCCCCCC)nc(NCCN2CCCCC2)n1 [S10N7 D4] | 3.6%
28 | CCCCCCCCCCCCCCCCNc1nc(NCCN(CC)CC)nc(SCCCCCCCCCCCCCC)n1 [S14N16 D7] | 1.3%
29 | CCCCCCCCCCCCCCCCCCNc1nc(NCCCN2CCN(C)CC2)nc(SCCCCCCCCC)n1 [S9N18 D9] | 15.8%
30 | CCCCCCCCCCCCCCCCCCSc1nc(NCCCCCC)nc(NCCN2CCCCC2)n1 [S18N6 D4] | 7.2%
31 | CCCCCCCCCCCNc1nc(NCC2CCN(C)CC2)nc(SCCCCCCC)n1 [S7N11 D10] | 45.9%
32 | CCCCCCCCCNc1nc(NCCCN(C)C)nc(SCCCCCCCCC)n1 [S9N9 D6] | 60.6%
33 | CCCCCCCCCCCCCCCSc1nc(NCCN(CC)CC)nc(SCCCCCC)n1 [S6S15 D7] | 3.3%
34 | CCCCCCCCCCCCCCSc1nc(NCCCCCCCCCCC)nc(NCCN2CCCC2)n1 [S14N11 D3] | 25.2%
35 | CCCCCCCCCCCCCCCNc1nc(NCCN2CCCC2)nc(SCCCCCCCC)n1 [S8N15 D3] | 9.9%
36 | CCCCCCCCCCCCCCCCCCNc1nc(NCCN2CCCC2)nc(SCCCCCCCCCCCCCCCCCC)n1 [S18N18 D3] | 0.0%
37 | CCCCCCCCCCCCCCSc1nc(NCCCCCC)nc(NCCN2CCN(C)CC2)n1 [S14N6 D5] | 21.7%
38 | CCCCCCCCCCSc1nc(NCCCCCC)nc(NCC2CCN(C)CC2)n1 [S10N6 D10] | 0.9%
39 | CCCCCCCCCCCSc1nc(NCC2CCN(C)CC2)nc(SCCCCCCC)n1 [S7S11 D10] | 39.1%
40 | CCCCCCCCCCCCCCCSc1nc(NCCN(C)C)nc(SCCCCCCC)n1 [S7S15 D1] | 9.4%

Row | SMILES | Absolute DNA transfection efficiency in HEK293 cells
41 | CCCCCCCCCCCCCCCCSc1nc(NCCCCCCCCC)nc(NCCN2CCCCC2)n1 [S16N9 D4] | 9.1%
42 | CCCCCCCCCCCCN(CCCCCCCCCCCC)c1nc(NCCCN2CCN(C)CC2)nc(SCCCCCCC)n1 [S7^2N12 D9] | 0.3%
43 | CCCCCCCCCCCNc1nc(NCCCN(C)C)nc(SCCCCCCC)n1 [S7N11 D6] | 42.1%
44 | CCCCCCCCCCCSc1nc(NCCCCCCC)nc(NCCCN2CCOCC2)n1 [S11N7 D8] | 13.4%
45 | CCCCCCCCCCCCCCSc1nc(NCCCN(C)C)nc(SCCCCCCC)n1 [S7S14 D6] | 4.4%
46 | CCCCCCCCCCCCCCCCSc1nc(NCCCCCCCC)nc(NCCN2CCOCC2)n1 [S16N8 D2] | 14.6%
47 | CCCCCCCCCCCCN(CCCCCCCCCCCC)c1nc(NCCN(C)C)nc(SCCCCCCC)n1 [S7^2N12 D1] | 0.2%
48 | CCCCCCCCCCCCCCCSc1nc(NCCCCCC)nc(NCCN2CCCC2)n1 [S15N6 D3] | 32.4%
49 | CCCCCCCCCCCCCCCCCCSc1nc(NCCCCCCCCC)nc(NCCN(C)C)n1 [S18N9 D1] | 5.3%
50 | CCCCCCCCCCCCCNc1nc(NCCN2CCCC2)nc(SCCCCCCC)n1 [S7N13 D3] | 17.9%
51 | CCCCCCCCCCCNc1nc(NCCCN(C)C)nc(SCCCCCCCC)n1 [S8N11 D6] | 99.4%
52 | CCCCCCCCCCCCCNc1nc(NCC2CCN(C)CC2)nc(SCCCCCCCCCC)n1 [S10N13 D10] | 3.2%
53 | CCCCCCCCCCCCCCCCSc1nc(NCCCCCCCCCCCCCCC)nc(NCC2CCN(C)CC2)n1 [S16N15 D10] | 0.2%
54 | CCCCCCCCCCCCCCCCCCNc1nc(NCCN2CCOCC2)nc(SCCCCCCCCCCC)n1 [S11N18 D2] | 2.8%
55 | CCCCCCCCCCCCN(CCCCCCCCCCCC)c1nc(NCCCN2CCN(C)CC2)nc(SCCCCCC)n1 [S6^2N12 D9] | 0.4%
56 | CCCCCCCCCCCNc1nc(NCC2CCN(C)CC2)nc(SCCCCCC)n1 [S6N11 D10] | 7.9%
57 | CCCCCCCCCCCCSc1nc(NCCN2CCN(C)CC2)nc(SCCCCCC)n1 [S6S12 D5] | 28.8%
58 | CCCCCCCCCCCCCCCCNc1nc(NCCN2CCN(C)CC2)nc(SCCCCCCC)n1 [S7N16 D5] | 18.2%
59 | CCCCCCCCCCCCCCCCCCNc1nc(NCCN2CCCCC2)nc(SCCCCCCCCCCCCCC)n1 [S14N18 D4] | 0.7%
60 | CCCCCCCCCCCCCCCSc1nc(NCCCCCCCCCCC)nc(NCCN(C)C)n1 [S15N11 D1] | 12.9%

— US20230123334A1, “AMINO LIPID COMPOUND, PREPARATION METHOD THEREFOR, AND APPLICATION THEREOF” (SHENZHEN SHENXIN BIOTECHNOLOGY CO., LTD., priority 2020, published 2023)
